Reference: US20100298141A1, “SUBSTITUTED PYRIDINE N-OXIDE HERBICIDES” (E. I. DU PONT DE NEMOURS AND COMPANY, priority 2007, published 2010)

How the values were obtained:
[1] = test system: downy brome; test: Test C pre-/postemergence test; assay type: in vivo, Bromus tectorum
Method in brief: (§1)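 Test chemicals were formulated with surfactant in a non-phytotoxic solvent and sprayed both on freshly planted seeds (preemergence) and on 1- to 4-leaf plants of 2–18 cm (postemergence). Flooded-paddy pots received compound directly into 3 cm of standing water, maintained for the test.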

[2] = test system: eastern black nightshade; test: Test C pre-/postemergence test; assay type: in vivo, Solanum ptycanthum
Method in brief: as §1

[3] = test system: rice; test: Test C flooded paddy test; assay type: in vivo, Oryza sativa; details: Flood
Method in brief: (§2)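 Compound was added to standing water 3 cm above soil, flood maintained, and plants held in a greenhouse before visual scoring against controls at 13 to 15 days.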

[4] = test system: wheat; test: Test A pre-/postemergence greenhouse test; assay type: in vivo, Triticum aestivum; details: for Plant response rating, Wheat: 0 to 100 scale where 0 is no effect and 100 is complete control; for Wheat plant response rating: 0 to 100 scale
Method in brief: (§3)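 Pots of loam–sand soil sown with the test species are sprayed preemergence on the soil surface; emerged seedlings (1–2 leaves, 2–10 cm) are sprayed postemergence at the same time. The vehicle is a non-phytotoxic solvent mixture with surfactant. Injury is scored visually after ~10 d in greenhouse.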

[5] = test system: corn; test: Test C pre-/postemergence test; assay type: in vivo, Zea mays
Method in brief: as §1

[6] = test system: wheat; test: Test C pre-/postemergence test; assay type: in vivo, Triticum aestivum
Method in brief: as §1

[7] = test system: yellow nutsedge; test: Test C pre-/postemergence test; assay type: in vivo, Cyperus esculentus
Method in brief: as §1

[8] = test system: catchweed bedstraw; test: Test C pre-/postemergence test; assay type: in vivo, Galium aparine
Method in brief: as §1

[9] = test system: woolly cupgrass; test: Test C pre-/postemergence test; assay type: in vivo, Eriochloa villosa
Method in brief: as §1

[10] = test system: duck salad; test: Test C flooded paddy test; assay type: in vivo, Heteranthera limosa; details: Flood
Method in brief: as §2

[11] = test system: velvetleaf; test: Test C pre-/postemergence test; assay type: in vivo, Abutilon theophrasti
Method in brief: as §1

[12] = test system: wild oat; test: Test C pre-/postemergence test; assay type: in vivo, Avena fatua
Method in brief: as §1

[13] = test system: redroot pigweed; test: Test A pre-/postemergence greenhouse test; assay type: in vivo, Amaranthus retroflexus; details: for Plant response rating, Pigweed: 0 to 100 scale where 0 is no effect and 100 is complete control; for Pigweed plant response rating: 0 to 100 scale
Method in brief: as §3

[14] = test system: giant foxtail; test: Test C pre-/postemergence test; assay type: in vivo, Setaria faberii
Method in brief: as §1

[15] = test system: morningglory; test: Test C pre-/postemergence test; assay type: in vivo, Ipomoea coccinea
Method in brief: as §1

[16] = test system: velvetleaf; test: Test A pre-/postemergence greenhouse test; assay type: in vivo, Abutilon theophrasti; details: for Plant response rating, Velvetleaf: 0 to 100 scale where 0 is no effect and 100 is complete control; for Velvetleaf plant response rating: 0 to 100 scale
Method in brief: as §3

[17] = test system: johnsongrass; test: Test C pre-/postemergence test; assay type: in vivo, Sorghum halepense
Method in brief: as §1

[18] = 62 g ai/ha, Preemergence, scale 0 to 100
[19] = 125 g ai/ha, preemergence, scale 0 (no effect) to 100 (complete control)
[20] = Preemergence, 31 g ai/ha, scale 0 to 100 (0 no effect, 100 complete control)
[21] = preemergence, 250 g ai/ha, scale 0 (no effect) to 100 (complete control)
[22] = 62 g ai/ha, scale 0 to 100 (0 no effect, 100 complete control)
[23] = 250 g ai/ha, scale 0 to 100, 0 no effect, 100 complete control, 13 to 15 days
[24] = Postemergence, 500 g ai/ha, 0 is no effect, 100 is complete control
[25] = Preemergence, 125 g ai/ha, 0 no effect, 100 complete control

CCc1cc[n+]([O-])c([S+]([O-])Cc2c(C(F)(F)F)nn(C)c2OCC(F)(F)F)c1 (centres unmarked) [Compound 59]
Bromegrass, Downy plant response rating [1, 18]: 40
Bromegrass, Downy plant response rating [1, 19]: 90
Plant response rating, Bromegrass, Downy [1, 20]: 20
Bromegrass, Downy plant response rating [1, 21]: 100
Nightshade plant response rating [2, 18]: 85
Nightshade plant response rating [2, 21]: 85
Plant response rating, Rice [3, 22]: 10
Plant response rating, Rice [3, 23]: 70
Plant response rating, Wheat ([4]; Postemergence, 125 g ai/ha): 60
Wheat plant response rating [4, 24]: 70
Wheat plant response rating [4, 25]: 60
Plant response rating, Wheat ([4]; Preemergence, 500 g ai/ha): 90
Corn plant response rating [5, 18]: 45
Corn plant response rating [5, 19]: 100
Plant response rating, Corn [5, 20]: 25
Corn plant response rating [5, 21]: 100
Wheat plant response rating [6, 18]: 40
Wheat plant response rating [6, 19]: 85
Plant response rating, Wheat [6, 20]: 30
Wheat plant response rating [6, 21]: 95
Nutsedge, Yellow plant response rating [7, 18]: 30
Nutsedge, Yellow plant response rating [7, 19]: 85
Plant response rating, Nutsedge, Yellow [7, 20]: 0
Nutsedge, Yellow plant response rating [7, 21]: 95
Galium plant response rating [8, 18]: 100
Galium plant response rating [8, 19]: 100
Plant response rating, Galium [8, 20]: 0
Galium plant response rating [8, 21]: 100
Cupgrass, Woolly plant response rating [9, 18]: 80
Cupgrass, Woolly plant response rating [9, 19]: 80
Plant response rating, Cupgrass, Woolly [9, 20]: 0
Cupgrass, Woolly plant response rating [9, 21]: 100
Plant response rating, Ducksalad [10, 22]: 40
Plant response rating, Ducksalad [10, 23]: 90
Velvetleaf plant response rating [11, 18]: 70
Velvetleaf plant response rating [11, 19]: 100
Plant response rating, Velvetleaf [11, 20]: 0
Velvetleaf plant response rating [11, 21]: 100
Oat, Wild plant response rating [12, 18]: 85
Oat, Wild plant response rating [12, 19]: 90
Plant response rating, Oat, Wild [12, 20]: 60
Oat, Wild plant response rating [12, 21]: 90
Plant response rating, Pigweed ([13]; Postemergence, 125 g ai/ha): 60
Pigweed plant response rating [13, 24]: 90
Pigweed plant response rating [13, 25]: 100
Plant response rating, Pigweed ([13]; Preemergence, 500 g ai/ha): 100
Foxtail, Giant plant response rating [14, 18]: 55
Foxtail, Giant plant response rating [14, 19]: 98
Plant response rating, Foxtail, Giant [14, 20]: 35
Foxtail, Giant plant response rating [14, 21]: 100
Morningglory plant response rating [15, 18]: 100
Morningglory plant response rating [15, 19]: 100
Plant response rating, Morningglory [15, 20]: 50
Morningglory plant response rating [15, 21]: 100
Plant response rating, Velvetleaf ([16]; Postemergence, 125 g ai/ha): 60
Velvetleaf plant response rating [16, 24]: 80
Velvetleaf plant response rating [16, 25]: 60
Plant response rating, Velvetleaf ([16]; Preemergence, 500 g ai/ha): 100
Johnsongrass plant response rating [17, 18]: 60
Johnsongrass plant response rating [17, 19]: 100
Plant response rating, Johnsongrass [17, 20]: 45
Johnsongrass plant response rating [17, 21]: 100
